Target: agmTA1 receptor (Chlorocebus aethiops (Cercopithecus aethiops, African green monkey), UniProt A0A0D9SAC2, I11T/L334F)
Assay: CRE-luciferase reporter functional assay in HEK293 cells transiently expressing agmTA1 receptor
Type: cell-based
Details: HEK293 cells transfected with pcDNA3.1-agmTA1 and pCRE-Luc; agonist 0.1 nM to 100 μM, 16 to 18 hours; luciferase activity

Row | SMILES | EC50
1 | NCC(O)c1ccc(O)cc1 (stereo not drawn) [octopamine] | ~200 nM
2 | NCCc1c[nH]c2ccccc12 [tryptamine] | ~940 nM
3 | NCCc1ccc(O)cc1 [tyramine] | ~16 nM
